This passage reports Ratio results from ChEMBL document CHEMBL3045984, “Resistance to HPPD-inhibiting herbicides in a population of waterhemp (Amaranthus tuberculatus) from Illinois, United States” (2011).

Test [1] has as its system Amaranthus tuberculatus. Description: Resistance ratio of GR50 for Amaranthus tuberculatus biotype MCR to GR50 for Amaranthus tuberculatus biotype WCS. It is filed as functional.
The test system of test [2] is Amaranthus tuberculatus. Description: Resistance ratio of GR50 for Amaranthus tuberculatus biotype MCR to GR50 for Amaranthus tuberculatus biotype ACR. It is filed as functional.

Turning to `CS(=O)(=O)c1ccc(C(=O)C2C(=O)CCCC2=O)c([N+](=O)[O-])c1` [MESOTRIONE], the Ratio amounted to 35 in the test with Amaranthus tuberculatus [1] and 10 in the test on Amaranthus tuberculatus [2].
